# Data published in ChEMBL document CHEMBL5252592, “Design, synthesis, and biological activity evaluation of novel tubulin polymerization inhibitors based on pyrimidine ring skeletons” (Bioorg Med Chem Lett, 2023).
# How the values were obtained:
# Type in all cases: functional, cell-based
# A549 = assay: Antiproliferative activity against human A549 cells assessed as inhibition of cell growth
# HepG2 = assay: Antiproliferative activity against human HepG2 cells assessed as inhibition of cell growth
# U-937 = assay: Antiproliferative activity against human U-937 cells assessed as inhibition of cell growth
# Y79 = assay: Antiproliferative activity against human Y79 cells assessed as inhibition of cell growth
SMILES,IC50 (A549) [µM],IC50 (HepG2) [µM],IC50 (U-937) [µM],IC50 (Y79) [µM]
COc1cc(Nc2ccnc(-c3coc4ccccc34)n2)cc(OC)c1OC,1.4,2.41,0.9,> 10
COc1cc(Nc2ccnc(-c3cc4ccccc4o3)n2)cc(OC)c1OC,> 10,> 10,> 10,> 10
COc1cc(Nc2cc(-c3cc4ccccc4s3)ncn2)cc(OC)c1OC,> 10,> 10,> 10,> 10
COc1cc(Nc2cc(-c3ccc4occc4c3)nc(N)n2)cc(OC)c1OC,4.42,4.38,2.41,> 10
COc1cc(Nc2nccc(-c3ccc4c(c3)OCO4)n2)cc(OC)c1OC,3.17,1.77,0.37,> 10
COc1cc(Nc2ccnc(-c3ccc4c(c3)OCO4)n2)cc(OC)c1OC,> 10,> 10,> 10,> 10
COc1cc(Nc2cc(-c3coc4ccccc34)ncn2)cc(OC)c1OC,> 10,> 10,> 10,> 10
COc1cc(Nc2ccnc(-c3ccc4[nH]c5ccccc5c4c3)n2)cc(OC)c1OC,3.88,3.77,1.31,> 10
COc1cc(Nc2cc(-c3cccc4c3OCO4)nc(N)n2)cc(OC)c1OC,> 10,> 10,> 10,> 10
COc1cc(Nc2cc(-c3coc4ccccc34)nc(N)n2)cc(OC)c1OC,1.68,1.97,1.4,> 10
COc1cc(Nc2cc(-c3ccc4occc4c3)ncn2)cc(OC)c1OC,> 10,> 10,> 10,> 10
COc1cc(Nc2nccc(-c3ccc4c(c3)CCO4)n2)cc(OC)c1OC,0.73,0.47,0.26,0.6
COc1cc(Nc2cc(-c3ccc4cc[nH]c4c3)ncn2)cc(OC)c1OC,> 10,> 10,> 10,> 10
COc1cc(Nc2cc(-c3ccc4c(c3)OCO4)ncn2)cc(OC)c1OC,> 10,> 10,> 10,> 10
COc1cc(Nc2cc(-c3ccc4[nH]c5ccccc5c4c3)ncn2)cc(OC)c1OC,3.03,> 10,3.95,> 10
COc1cc(Nc2cc(-c3csc4ccccc34)ncn2)cc(OC)c1OC,> 10,> 10,> 10,> 10
COc1cc(Nc2nccc(-c3cc4ccccc4s3)n2)cc(OC)c1OC,0.46,0.24,0.12,> 10
COc1cc(Nc2ccnc(-c3ccc4c(c3)OCCO4)n2)cc(OC)c1OC,> 10,> 10,> 10,> 10
